# Read-outs that look alike come from different tables or passages of the source.
# Target: CAAX farnesyltransferase (Rattus norvegicus, UniProt Q02293+Q04631)
# Assay: In vitro inhibition of CAAX farnesyltransferase
# Type: biochemical
# Parameters: purified to homogeneity from rat brain homogenates; from tissue; host or cells: rat brain; alternatively recombinant enzyme from a baculovirus expression system
# Settings: Table D
# Procedure: All compounds were tested for in vitro inhibition of CAAX protein farnesyltransferase. […] Alternatively, recombinant CAAX protein farnesyltransferase was also used in this assay. […] Seventy-two hrs after infection, the cells were harvested and disrupted and the enzyme isolated by chromatography on Q-Sepharose.
# After incubation for 30 min at 37° C., the amount of [3H]famesyl group transferred to p21H-ras was measured by precipitation with SDS/trichloroacetic acid, filtration onto nitrocellulose, and scintillation counting.
# Structures of the compounds tested are reproduced below. Compound numbers also refer to example numbers above.
# [1] = diastereomer A, read-out: EC50 (μM) "A"
# [2] = diastereomer B, read-out: EC50 (μM) "B"
# Chain of CAAX farnesyltransferase (Q02293 whole entry, one chain of several): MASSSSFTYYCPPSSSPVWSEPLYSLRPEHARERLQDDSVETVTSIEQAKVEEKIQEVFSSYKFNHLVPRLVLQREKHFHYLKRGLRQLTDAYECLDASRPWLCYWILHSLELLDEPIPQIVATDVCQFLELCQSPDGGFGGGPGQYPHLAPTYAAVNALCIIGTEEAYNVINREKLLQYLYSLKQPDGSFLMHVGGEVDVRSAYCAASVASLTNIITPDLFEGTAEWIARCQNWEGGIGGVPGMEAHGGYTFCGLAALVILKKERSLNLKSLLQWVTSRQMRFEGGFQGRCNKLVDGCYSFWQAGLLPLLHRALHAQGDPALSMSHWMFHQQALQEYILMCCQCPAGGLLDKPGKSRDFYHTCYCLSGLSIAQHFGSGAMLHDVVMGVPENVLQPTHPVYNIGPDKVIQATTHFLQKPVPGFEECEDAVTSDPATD
SMILES,EC50 [1],EC50 [2],"EC50 (EC50 (μM) ""A"", diastereomer A)","EC50 (EC50 (μM) ""B"", diastereomer B)"
"CSCC[C@H](NC(=O)CN1C(=O)C(N(C)C(=O)[C@@H](N)CS)N=C(c2ccccc2)c2ccccc21)C(N)=O (stereo partly drawn) [compound 33, N-[[3-[(2-amino-3-mercapto-1-oxopropyl)methylamino]-2,3-dihydro-2-oxo-5phenyl-1H-1,4-benzodiazepin-1-yl]acetyl]-L-methionine amide]",2.2 µM,0.019 µM,–,–
"C[C@H](NC(=O)CN1C(=O)C(N(C)C(=O)[C@@H](N)CS)N=C(c2ccccc2)c2ccccc21)C(=O)O (stereo partly drawn) [compound 35, N-[[3-[(2-amino-3-mercapto-1-oxopropyl)methylamino]-2,3dihydro-2-oxo-5-phenyl-1H-1,4-benzodiazepin-1-yl]acetyl]-L-alanine]",> 10 µM,0.022 µM,–,–
"CN(C(=O)[C@@H](N)CS)C1N=C(c2ccccc2)c2ccccc2N(CC(=O)N2CCC[C@H]2C(=O)O)C1=O (stereo partly drawn) [compound 36, N-[[3-[(2-amino-3-mercapto-1-oxopropyl)methylamino]-2,3-dihydro-2-oxo-5-phenyl-1H-1,4-benzodiazepin-1-yl]acetyl]-L-proline]",> 10 µM,0.048 µM,–,–
CCOC(=O)[C@H](CCSC)NC(=O)CN1C(=O)C(N(C)C(=O)[C@@H](N)CS)N=C(c2ccccc2)c2ccccc21 (stereo partly drawn) [compound 39],8 µM,0.11 µM,–,–
CSCC[C@H](NC(=O)CN1C(=O)C(N(C)C(=O)[C@@H](N)CS)N=C(c2ccccc2)c2ccccc21)C(=O)OC1CCCCC1 (stereo partly drawn) [compound 41],4.2 µM,0.074 µM,–,–
"CCN[C@@H](CS)C(=O)N(C)C1N=C(c2ccccc2)c2ccccc2N(CC(=O)N[C@@H](CCSC)C(=O)O)C1=O (stereo partly drawn) [compound 42, N-[[3-[(2-ethylamino-3-mercapto-1-oxopropyl)methylamino]-2,3-dihydro-2-oxo-5-phenyl-1H-1,4-benzodiazepin-1-yl]acetyl]-L-methionine]",0.58 µM,0.018 µM,–,–
"CN(C(=O)[C@@H](N)CS)C1N=C(c2ccccc2)c2ccccc2N(CC(=O)N[C@@H](CS)C(=O)O)C1=O (stereo partly drawn) [compound 44, N-[[3-[(2-Amino-3-mercapto-1-oxopropyl)methylamino]-2,3-dihydro-2-oxo-5phenyl-1H-1,4-benzodiazepin-1-yl]acetyl]-L-cysteine]",3 µM,0.0045 µM,–,–
"CSCC[C@H](NC(=O)CN1C(=O)C(N(C)C(=O)[C@@H](N)CO)N=C(c2ccccc2)c2ccccc21)C(=O)O (stereo partly drawn) [compound 45, N-[[3-[(2-amino-3-hydroxy-1-oxopropyl)methylamino]-2,3-dihydro-2-oxo-5-phenyl-1H-1,4-benzodiazepin-1-yl]acetyl]-L-methionine]",> 10 µM,> 10 µM,–,–
"CSCC[C@H](NC(=O)CN1C(=O)C(N(C)C(=O)[C@@H](N)CS)N=C(c2ccccc2)c2ccccc21)c1nnn[nH]1 (stereo partly drawn) [compound 47, N-[[3-[(2-amino-3-mercapto-1-oxopropyl)methylamino]-2,3-dihydro-2-oxo-5-phenyl-1H-1,4-benzodiazepin-1-yl]acetyl]-L-methionine tetrazole]",–,–,0.044 µM,0.0046 µM
CSCC[C@H](NC(=O)CCN1C(=O)C(N(C)C(=O)[C@@H](N)CS)N=C(c2ccccc2)c2ccccc21)C(=O)O (stereo partly drawn) [compound 48],2.5 µM,0.004 µM,–,–
"CSCC[C@](C)(NC(=O)CN1C(=O)C(N(C)C(=O)[C@@H](N)CS)N=C(c2ccccc2)c2ccccc21)C(=O)O (stereo partly drawn) [compound 49, N-[[3-[(2-amino-3-mercapto-1-oxopropyl)methylamino]-2,3-dihydro-2-oxo-5-phenyl-1H-1,4-benzodiazepin-1-yl]acetyl]-(α-methyl)-methionine]",0.74 µM,0.006 µM,–,–
"CC(C)[C@H](NC(=O)CN1C(=O)C(N(C)C(=O)[C@@H](N)CS)N=C(c2ccccc2)c2ccccc21)C(=O)O (stereo partly drawn) [compound 50, N-[[3-[(2-amino-3-mercapto-1-oxopropyl)methylamino]-2,3-dihydro-2-oxo-5-phenyl-1H-1,4benzodiazepin-1-yl]acetyl]-L-valine]",> 3 µM,0.0008 µM,–,–

# From US5843941A, “Ras farnesyl transferase inhibitors” (Genentech, Inc., priority 1994, dated 1998)
